According to ChEMBL document CHEMBL4396937, “Synthesis of new triazole fused imidazo[2,1-b]thiazole hybrids with emphasis on Staphylococcus aureus virulence factors” (Bioorg Med Chem Lett, 2019):
Converted amounts (≈) assume the structure as drawn.

Experiments:
Format in all cases: functional
[1] = system: Bacillus subtilis; experiment: Bactericidal activity against Bacillus subtilis MTCC 121 assessed as reduction in bacterial survival incubated for 24 hrs followed by transfer of microbial suspension to agar plates and measured at 24 hrs post transfer by agar well diffusion method; details: MTCC 121, 24 h
[2] = system: Staphylococcus aureus; experiment: Antibacterial activity against Staphylococcus aureus MLS-16 MTCC 2940 assessed as reduction in bacterial growth incubated for 24 hrs by agar well diffusion method; details: MLS-16 MTCC 2940, 24 h
[3] = system: Micrococcus luteus; experiment: Bactericidal activity against Micrococcus luteus MTCC 2470 assessed as reduction in bacterial survival incubated for 24 hrs followed by transfer of microbial suspension to agar plates and measured at 24 hrs post transfer by agar well diffusion method; details: MTCC 2470, 24 h
[4] = system: Candida albicans; experiment: Fungicidal activity against Candida albicans MTCC 3017 assessed as reduction in fungal survival incubated for 24 hrs followed by transfer of microbial suspension to agar plates and measured at 24 hrs post transfer by agar well diffusion method; details: MTCC 3017, 24 h
[5] = system: Pseudomonas aeruginosa; experiment: Bactericidal activity against Pseudomonas aeruginosa MTCC 2453 assessed as reduction in bacterial survival incubated for 24 hrs followed by transfer of microbial suspension to agar plates and measured at 24 hrs post transfer by agar well diffusion method; details: MTCC 2453, 24 h
[6] = system: Bacillus subtilis; experiment: Antibacterial activity against Bacillus subtilis MTCC 121 assessed as reduction in bacterial growth incubated for 24 hrs by agar well diffusion method; details: MTCC 121, 24 h
[7] = system: Staphylococcus aureus; experiment: Antibacterial activity against Staphylococcus aureus MTCC 96 assessed as reduction in bacterial growth incubated for 24 hrs by agar well diffusion method; details: MTCC 96, 24 h
[8] = system: Candida albicans; experiment: Antifungal activity against Candida albicans MTCC 3017 assessed as reduction in fungal growth incubated for 24 hrs by agar well diffusion method; details: MTCC 3017, 24 h
[9] = system: Micrococcus luteus; experiment: Antibacterial activity against Micrococcus luteus MTCC 2470 assessed as reduction in bacterial growth incubated for 24 hrs by agar well diffusion method; details: MTCC 2470, 24 h
[10] = system: Raoultella planticola; experiment: Bactericidal activity against Klebsiella planticola MTCC 530 assessed as reduction in bacterial survival incubated for 24 hrs followed by transfer of microbial suspension to agar plates and measured at 24 hrs post transfer by agar well diffusion method; details: MTCC 530, 24 h
[11] = system: Escherichia coli; experiment: Bactericidal activity against Escherichia coli MTCC 739 assessed as reduction in bacterial survival incubated for 24 hrs followed by transfer of microbial suspension to agar plates and measured at 24 hrs post transfer by agar well diffusion method; details: MTCC 739, 24 h
[12] = system: Escherichia coli; experiment: Antibacterial activity against Escherichia coli MTCC 739 assessed as reduction in bacterial growth incubated for 24 hrs by agar well diffusion method; details: MTCC 739, 24 h
[13] = system: Staphylococcus aureus; experiment: Bactericidal activity against Staphylococcus aureus MLS-16 MTCC 2940 assessed as reduction in bacterial survival incubated for 24 hrs followed by transfer of microbial suspension to agar plates and measured at 24 hrs post transfer by agar well diffusion method; details: MLS-16 MTCC 2940, 24 h
[14] = system: Pseudomonas aeruginosa; experiment: Antibacterial activity against Pseudomonas aeruginosa MTCC 2453 assessed as reduction in bacterial growth incubated for 24 hrs by agar well diffusion method; details: MTCC 2453, 24 h
[15] = system: Staphylococcus aureus; experiment: Bactericidal activity against Staphylococcus aureus MTCC 96 assessed as reduction in bacterial survival incubated for 24 hrs followed by transfer of microbial suspension to agar plates and measured at 24 hrs post transfer by agar well diffusion method; details: MTCC 96, 24 h
[16] = system: Raoultella planticola; experiment: Antibacterial activity against Klebsiella planticola MTCC 530 assessed as reduction in bacterial growth incubated for 24 hrs by agar well diffusion method; details: MTCC 530, 24 h

Row | Structure (SMILES) | MIC [2] | MIC [6] | MIC [7] | MIC [8] | MIC [9] | MIC [12] | MIC [14] | MBC [1] | MBC [3] | MFC [4] | MBC [5] | MBC [10] | MBC [11] | MBC [13] | MBC [15] | MIC [16]
1 | COc1ccc(-c2nc3sccn3c2C(=O)c2cn(-c3ccc(F)cc3Br)nn2)cc1 | 7.8 µg/mL (≈ 15.7 µM) | 7.8 µg/mL (≈ 15.7 µM) | 3.9 µg/mL (≈ 7.83 µM) | 7.8 µg/mL (≈ 15.7 µM) | 3.9 µg/mL (≈ 7.83 µM) | > 125 µg/mL | > 125 µg/mL | 15.6 µg/mL (≈ 31.3 µM) | 7.8 µg/mL (≈ 15.7 µM) | 15.6 µg/mL (≈ 31.3 µM) | > 125 µg/mL | 15.6 µg/mL (≈ 31.3 µM) | > 125 µg/mL | 15.6 µg/mL (≈ 31.3 µM) | 7.8 µg/mL (≈ 15.7 µM) | 15.6 µg/mL (≈ 31.3 µM)
2 | O=C(c1cn(-c2ccc(F)cc2Br)nn1)c1c(-c2ccc(Cl)cc2)nc2sccn12 | 7.8 µg/mL (≈ 15.5 µM) | 3.9 µg/mL (≈ 7.76 µM) | 3.9 µg/mL (≈ 7.76 µM) | 7.8 µg/mL (≈ 15.5 µM) | 3.9 µg/mL (≈ 7.76 µM) | > 125 µg/mL | > 125 µg/mL | 7.8 µg/mL (≈ 15.5 µM) | 7.8 µg/mL (≈ 15.5 µM) | 15.6 µg/mL (≈ 31 µM) | > 125 µg/mL | 7.8 µg/mL (≈ 15.5 µM) | > 125 µg/mL | 15.6 µg/mL (≈ 31 µM) | 7.8 µg/mL (≈ 15.5 µM) | 3.9 µg/mL (≈ 7.76 µM)
3 | O=C(c1cn(-c2ccc(F)cc2)nn1)c1c(-c2ccccc2)nc2sccn12 | > 125 µg/mL | 7.8 µg/mL (≈ 20 µM) | > 125 µg/mL | 15.6 µg/mL (≈ 40.1 µM) | > 125 µg/mL | > 125 µg/mL | > 125 µg/mL | 15.6 µg/mL (≈ 40.1 µM) | > 125 µg/mL | 31.2 µg/mL (≈ 80.1 µM) | > 125 µg/mL | > 125 µg/mL | > 125 µg/mL | > 125 µg/mL | > 125 µg/mL | > 125 µg/mL
4 | O=C(c1cn(-c2ccc(C(F)(F)F)cc2)nn1)c1c(-c2ccccc2)nc2sccn12 | 7.8 µg/mL (≈ 17.8 µM) | 3.9 µg/mL (≈ 8.88 µM) | 3.9 µg/mL (≈ 8.88 µM) | 15.6 µg/mL (≈ 35.5 µM) | 3.9 µg/mL (≈ 8.88 µM) | > 125 µg/mL | > 125 µg/mL | 7.8 µg/mL (≈ 17.8 µM) | 7.8 µg/mL (≈ 17.8 µM) | 31.2 µg/mL (≈ 71 µM) | > 125 µg/mL | > 125 µg/mL | > 125 µg/mL | 15.6 µg/mL (≈ 35.5 µM) | 7.8 µg/mL (≈ 17.8 µM) | > 125 µg/mL
5 | COc1ccc(-n2cc(C(=O)c3c(-c4ccc(Cl)cc4)nc4sccn34)nn2)cc1 | 7.8 µg/mL (≈ 17.9 µM) | 3.9 µg/mL (≈ 8.95 µM) | 3.9 µg/mL (≈ 8.95 µM) | 7.8 µg/mL (≈ 17.9 µM) | 3.9 µg/mL (≈ 8.95 µM) | > 125 µg/mL | > 125 µg/mL | 7.8 µg/mL (≈ 17.9 µM) | 7.8 µg/mL (≈ 17.9 µM) | 15.6 µg/mL (≈ 35.8 µM) | > 125 µg/mL | 7.8 µg/mL (≈ 17.9 µM) | > 125 µg/mL | 15.6 µg/mL (≈ 35.8 µM) | 7.8 µg/mL (≈ 17.9 µM) | 3.9 µg/mL (≈ 8.95 µM)
6 | O=C(c1cn(-c2ccc(F)cc2)nn1)c1c(-c2ccc(Cl)cc2)nc2sccn12 | 7.8 µg/mL (≈ 18.4 µM) | 3.9 µg/mL (≈ 9.2 µM) | 3.9 µg/mL (≈ 9.2 µM) | 15.6 µg/mL (≈ 36.8 µM) | 3.9 µg/mL (≈ 9.2 µM) | > 125 µg/mL | > 125 µg/mL | 7.8 µg/mL (≈ 18.4 µM) | 7.8 µg/mL (≈ 18.4 µM) | > 125 µg/mL | > 125 µg/mL | 15.6 µg/mL (≈ 36.8 µM) | > 125 µg/mL | 15.6 µg/mL (≈ 36.8 µM) | 7.8 µg/mL (≈ 18.4 µM) | 7.8 µg/mL (≈ 18.4 µM)

The next lines start with results.

Row | MIC [2] | MIC [6] | MIC [7] | MIC [8] | MIC [9] | MIC [12] | MIC [14] | Structure (SMILES) | MBC [1] | MBC [3] | MFC [4] | MBC [5] | MBC [10] | MBC [11] | MBC [13] | MBC [15] | MIC [16]
7 | 7.8 µg/mL (≈ 15.7 µM) | 3.9 µg/mL (≈ 7.86 µM) | 7.8 µg/mL (≈ 15.7 µM) | 15.6 µg/mL (≈ 31.5 µM) | 15.6 µg/mL (≈ 31.5 µM) | > 125 µg/mL | > 125 µg/mL | COc1cc(-n2cc(C(=O)c3c(-c4ccc(Cl)cc4)nc4sccn34)nn2)cc(OC)c1OC | 7.8 µg/mL (≈ 15.7 µM) | 31.2 µg/mL (≈ 62.9 µM) | 31.2 µg/mL (≈ 62.9 µM) | > 125 µg/mL | > 125 µg/mL | > 125 µg/mL | 15.6 µg/mL (≈ 31.5 µM) | 15.6 µg/mL (≈ 31.5 µM) | > 125 µg/mL
8 | 7.8 µg/mL (≈ 16.2 µM) | 7.8 µg/mL (≈ 16.2 µM) | 3.9 µg/mL (≈ 8.12 µM) | 7.8 µg/mL (≈ 16.2 µM) | 7.8 µg/mL (≈ 16.2 µM) | > 125 µg/mL | > 125 µg/mL | COc1ccc(-c2nc3sccn3c2C(=O)c2cn(-c3ccc(Br)cc3)nn2)cc1 | 15.6 µg/mL (≈ 32.5 µM) | 15.6 µg/mL (≈ 32.5 µM) | 15.6 µg/mL (≈ 32.5 µM) | > 125 µg/mL | 31.2 µg/mL (≈ 65 µM) | > 125 µg/mL | 15.6 µg/mL (≈ 32.5 µM) | 7.8 µg/mL (≈ 16.2 µM) | 15.6 µg/mL (≈ 32.5 µM)
9 | 7.8 µg/mL (≈ 15.9 µM) | 15.6 µg/mL (≈ 31.7 µM) | 15.6 µg/mL (≈ 31.7 µM) | 7.8 µg/mL (≈ 15.9 µM) | 15.6 µg/mL (≈ 31.7 µM) | > 125 µg/mL | > 125 µg/mL | COc1ccc(-c2nc3sccn3c2C(=O)c2cn(-c3cc(OC)c(OC)c(OC)c3)nn2)cc1 | 31.2 µg/mL (≈ 63.5 µM) | 31.2 µg/mL (≈ 63.5 µM) | 15.6 µg/mL (≈ 31.7 µM) | > 125 µg/mL | > 125 µg/mL | > 125 µg/mL | 15.6 µg/mL (≈ 31.7 µM) | 31.2 µg/mL (≈ 63.5 µM) | > 125 µg/mL
